Test results reported in ChEMBL document CHEMBL3396967, “Discovery of anthranilamides as a novel class of inhibitors of neurotropic alphavirus replication” (Bioorg Med Chem, 2015).
Calls of active or inactive are those of the source. The rule behind the calls is not given here.

molecular target: MDR1 (ABCB1, P-glycoprotein) (Homo sapiens, UniProt P08183); experiment: Inhibition of human MDR1 expressed in MDCK2 cells assessed as increase of rhodamine 123 uptake at 30 uM up to 240 mins relative to 5 uM tariquidar; assay type: ADME, cell-based, MDCK-II; conditions: MDCK2 cells expressing human MDR1, probe rhodamine 123, read-out: Activity
Sequence (P08183 whole entry): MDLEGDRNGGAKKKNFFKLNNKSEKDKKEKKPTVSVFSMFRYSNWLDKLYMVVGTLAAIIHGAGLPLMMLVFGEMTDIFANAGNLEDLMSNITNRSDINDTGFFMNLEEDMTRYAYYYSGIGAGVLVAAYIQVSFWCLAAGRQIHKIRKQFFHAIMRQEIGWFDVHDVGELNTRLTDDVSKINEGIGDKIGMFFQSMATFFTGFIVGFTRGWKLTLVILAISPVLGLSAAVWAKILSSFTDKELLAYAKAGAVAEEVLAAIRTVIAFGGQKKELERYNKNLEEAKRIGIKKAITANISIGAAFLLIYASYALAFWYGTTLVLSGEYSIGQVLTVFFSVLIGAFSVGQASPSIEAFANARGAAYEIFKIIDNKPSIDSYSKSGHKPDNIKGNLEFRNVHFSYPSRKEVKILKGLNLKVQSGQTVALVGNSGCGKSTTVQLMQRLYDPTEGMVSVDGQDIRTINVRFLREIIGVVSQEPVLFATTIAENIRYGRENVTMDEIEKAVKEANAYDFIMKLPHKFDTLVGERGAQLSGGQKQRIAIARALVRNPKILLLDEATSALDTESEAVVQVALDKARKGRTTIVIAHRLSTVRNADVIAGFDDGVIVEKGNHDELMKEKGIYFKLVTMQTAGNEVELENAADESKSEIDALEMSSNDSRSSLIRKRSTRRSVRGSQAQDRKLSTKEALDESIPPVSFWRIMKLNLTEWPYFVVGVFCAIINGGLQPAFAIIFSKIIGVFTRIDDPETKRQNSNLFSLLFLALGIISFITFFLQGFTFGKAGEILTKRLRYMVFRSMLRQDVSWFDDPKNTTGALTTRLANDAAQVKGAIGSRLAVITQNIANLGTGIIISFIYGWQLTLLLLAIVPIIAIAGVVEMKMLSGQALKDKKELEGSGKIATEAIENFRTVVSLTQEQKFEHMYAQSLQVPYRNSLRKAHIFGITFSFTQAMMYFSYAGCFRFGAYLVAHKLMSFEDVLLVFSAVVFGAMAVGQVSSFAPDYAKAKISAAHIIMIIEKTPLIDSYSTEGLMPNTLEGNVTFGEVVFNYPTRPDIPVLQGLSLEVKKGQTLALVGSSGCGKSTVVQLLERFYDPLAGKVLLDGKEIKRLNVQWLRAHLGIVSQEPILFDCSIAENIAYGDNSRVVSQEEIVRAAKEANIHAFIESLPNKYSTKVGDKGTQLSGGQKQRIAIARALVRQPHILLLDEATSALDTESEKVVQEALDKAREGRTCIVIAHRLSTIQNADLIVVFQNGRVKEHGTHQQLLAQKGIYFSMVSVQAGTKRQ

SMILES | inhibition at 4 h, 30 µM [%]
O=C(NCCc1ccncc1)C1CCN(C(=O)c2ccccc2NCCc2ccc(Cl)cc2)CC1 | 30.7
CN(c1ccc(Cl)cc1)c1ccccc1C(=O)N1CCC(C(=O)NCCc2ccncc2)CC1 | 3.9
O=C(NCCc1ccncc1)C1CCN(C(=O)c2ccccc2Nc2ccccc2)CC1 | 10.9
O=C(c1ccc(Cl)cc1)c1ccccc1C(=O)N1CCC(C(=O)NCCc2ccncc2)CC1 | 1.8
O=C(NCCc1ccncc1)C1CCN(C(=O)c2ccccc2NCc2ccc(Cl)cc2)CC1 | 59.6
O=C(NCCc1ccncc1)C1CCN(C(=O)c2ccccc2Oc2ccc(Cl)cc2)CC1 | 9.3
O=C(NCCc1ccncc1)C1CCN(C(=O)c2ccccc2NCc2ccccc2)CC1 | 2.5
O=C(NCCc1ccncc1)C1CCN(C(=O)c2ccccc2Cc2ccc(Cl)cc2)CC1 | 22.6
O=C(NCCc1ccncc1)C1CCN(C(=O)c2ccccc2Nc2ccc(Cl)cc2)CC1 | 47.7

tested on: not listed separately; experiment: (§1) Half life in BALB/c mouse liver microsomes at 1 uM in presence of NADPH by HPLC-MS/MS method; assay type: ADME; conditions: BALB/c, liver microsomes

SMILES | half-life at 1 µM [min]
O=C(NCCc1ccncc1)C1CCN(C(=O)c2cc3ccccc3n2Cc2ccc(Cl)cc2)CC1 | 9
O=C(NCCc1ccncc1)C1CCN(C(=O)c2cccn2Cc2ccc(Cl)cc2)CC1 | 3

tested on: Liver; experiment: as §1; assay type: ADME; conditions: microsomes, 1 µM

SMILES | t1/2 [min]
O=C(NCCc1ccncc1)C1CCN(C(=O)c2ccccc2NCc2ccc(Cl)cc2)CC1 | 15
O=C(NCCc1ccncc1)C1CCN(C(=O)c2ccccc2Oc2ccc(Cl)cc2)CC1 | 18
O=C(NCCc1ccncc1)C1CCN(C(=O)c2ccccc2Cc2ccc(Cl)cc2)CC1 | 3
O=C(NCCc1ccncc1)C1CCN(C(=O)c2ccccc2Nc2ccc(Cl)cc2)CC1 | 19

tested on: Fort Morgan virus; experiment: not given; assay type: functional; conditions: not given

SMILES | Activity [×10⁶ PFU/ml]
O=C(NCCc1ccncc1)C1CCN(C(=O)c2ccccc2NCc2ccc(Cl)cc2)CC1 | 3.2
O=C(NCCc1ccncc1)C1CCN(C(=O)c2ccccc2Nc2ccc(Cl)cc2)CC1 | 3.7

same assay, conditions: 25 uM

SMILES | Activity
O=C(NCCc1ccncc1)C1CCN(C(=O)c2ccccc2Oc2ccc(Cl)cc2)CC1 | inactive

tested on: Western equine encephalitis virus; experiment: not given; assay type: functional; conditions: not given

SMILES | Activity [×10⁶ PFU/ml]
O=C(NCCc1ccncc1)C1CCN(C(=O)c2ccccc2NCc2ccc(Cl)cc2)CC1 | 1.6
O=C(NCCc1ccncc1)C1CCN(C(=O)c2ccccc2Nc2ccc(Cl)cc2)CC1 | 3.2

same assay, conditions: 25 uM

SMILES | Activity
O=C(NCCc1ccncc1)C1CCN(C(=O)c2ccccc2Oc2ccc(Cl)cc2)CC1 | inactive

tested on: Encephalomyocarditis virus; experiment: Antiviral activity against Encephalomyocarditis virus infected in HEK293 cells assessed as reduction of viral titer at 25 uM by plaque reduction assay relative to untreated control; assay type: functional; conditions: not given

SMILES | fold change (FC)
O=C(NCCc1ccncc1)C1CCN(C(=O)c2ccccc2NCc2ccc(Cl)cc2)CC1 | 10
O=C(NCCc1ccncc1)C1CCN(C(=O)c2ccccc2Nc2ccc(Cl)cc2)CC1 | 10

tested on: not listed separately; experiment: Inhibition of host cell cap-dependent translation in Cricetinae BSR-T7 cells assessed as suppression of pSV40-LUC activity at 0.1 to 10 uM after 20 hrs; assay type: functional, cell-based; conditions: not given

SMILES | IC50 [µM]
O=C(NCCc1ccncc1)C1CCN(C(=O)c2ccccc2NCc2ccc(Cl)cc2)CC1 | 1
O=C(NCCc1ccncc1)C1CCN(C(=O)c2cc3ccccc3n2Cc2ccc(Cl)cc2)CC1 | 0.1
O=C(NCCc1ccncc1)C1CCN(C(=O)c2ccccc2Nc2ccc(Cl)cc2)CC1 | 2.2

tested on: California encephalitis virus; experiment: Antiviral activity against California encephalitis virus infected in HEK293 cells assessed as reduction of viral titer at 25 uM by plaque reduction assay relative to untreated control; assay type: functional; conditions: not given

SMILES | fold change (FC)
O=C(NCCc1ccncc1)C1CCN(C(=O)c2ccccc2NCc2ccc(Cl)cc2)CC1 | 10
O=C(NCCc1ccncc1)C1CCN(C(=O)c2ccccc2Nc2ccc(Cl)cc2)CC1 | 10

tested on: Fort Morgan virus; experiment: Antiviral activity against Fort Morgan virus infected in HEK293 cells assessed as reduction of viral titer by plaque reduction assay relative to untreated control; assay type: functional, cell-based; conditions: not given

SMILES | IC50 [µM] | inhibition
O=C(NCCc1ccncc1)C1CCN(C(=O)c2ccccc2NCc2ccc(Cl)cc2)CC1 | 2.3 | Dose-dependent effect
O=C(NCCc1ccncc1)C1CCN(C(=O)c2cc3ccccc3n2Cc2ccc(Cl)cc2)CC1 | 1 | 
O=C(NCCc1ccncc1)C1CCN(C(=O)c2ccccc2Nc2ccc(Cl)cc2)CC1 | 5.2 | Dose-dependent effect

tested on: not listed separately; experiment: Cytotoxicity against human BE(2)-C cells after 18 to 20 hrs by MTT assay; assay type: cell-based; conditions: not given

SMILES | CC50 [µM]
O=C(NCCc1ccncc1)C1CCN(C(=O)c2ccccc2NCCc2ccc(Cl)cc2)CC1 | 86
CN(c1ccc(Cl)cc1)c1ccccc1C(=O)N1CCC(C(=O)NCCc2ccncc2)CC1 | > 100
O=C(NCCc1ccncc1)C1CCN(C(=O)c2ccccc2Nc2ccccc2)CC1 | > 100
O=C(c1ccc(Cl)cc1)c1ccccc1C(=O)N1CCC(C(=O)NCCc2ccncc2)CC1 | > 50
O=C(NCCc1ccncc1)C1CCN(C(=O)c2ccccc2NCc2ccc(Cl)cc2)CC1 | 75.2
O=C(NCCc1ccncc1)C1CCN(C(=O)c2ccccc2Oc2ccc(Cl)cc2)CC1 | 56
O=C(NCCc1ccncc1)C1CCN(C(=O)c2ccccc2NCc2ccccc2)CC1 | 92.2
O=C(NCCc1ccncc1)C1CCN(C(=O)c2cccn2Cc2ccc(Cl)cc2)CC1 | > 100
O=C(NCCc1ccncc1)C1CCN(C(=O)c2ccccc2Cc2ccc(Cl)cc2)CC1 | 70.7
O=C(NCCc1ccncc1)C1CCN(C(=O)c2ccccc2Nc2ccc(Cl)cc2)CC1 | > 100

tested on: Western equine encephalitis virus; experiment: not given; assay type: functional; conditions: not given; remark: another data set of the same source

SMILES | Activity [×10⁶ PFU/ml]
O=C(NCCc1ccncc1)C1CCN(C(=O)c2ccccc2NCc2ccc(Cl)cc2)CC1 | 11.7
O=C(NCCc1ccncc1)C1CCN(C(=O)c2ccccc2Nc2ccc(Cl)cc2)CC1 | 49.2

same assay, conditions: 5 uM

SMILES | Activity
O=C(NCCc1ccncc1)C1CCN(C(=O)c2ccccc2Oc2ccc(Cl)cc2)CC1 | inactive

tested on: Fort Morgan virus; experiment: not given; assay type: functional; conditions: not given; remark: another data set of the same source

SMILES | Activity [×10⁶ PFU/ml]
O=C(NCCc1ccncc1)C1CCN(C(=O)c2ccccc2NCc2ccc(Cl)cc2)CC1 | 9.4

same assay, conditions: 5 uM

SMILES | Activity
O=C(NCCc1ccncc1)C1CCN(C(=O)c2ccccc2Oc2ccc(Cl)cc2)CC1 | inactive

tested on: Fort Morgan virus; experiment: not given; assay type: functional; conditions: not given; remark: another data set of the same source

SMILES | Activity [%]
O=C(NCCc1ccncc1)C1CCN(C(=O)c2ccccc2NCc2ccc(Cl)cc2)CC1 | 73.3
O=C(NCCc1ccncc1)C1CCN(C(=O)c2ccccc2Nc2ccc(Cl)cc2)CC1 | 54.6

same assay, conditions: 5 uM

SMILES | Activity
O=C(NCCc1ccncc1)C1CCN(C(=O)c2ccccc2Oc2ccc(Cl)cc2)CC1 | inactive

tested on: Fort Morgan virus; experiment: not given; assay type: functional; conditions: not given; remark: another data set of the same source

SMILES | Activity [%]
O=C(NCCc1ccncc1)C1CCN(C(=O)c2ccccc2NCc2ccc(Cl)cc2)CC1 | 66.6
O=C(NCCc1ccncc1)C1CCN(C(=O)c2ccccc2Nc2ccc(Cl)cc2)CC1 | 58.1

same assay, conditions: 25 uM

SMILES | Activity
O=C(NCCc1ccncc1)C1CCN(C(=O)c2ccccc2Oc2ccc(Cl)cc2)CC1 | inactive

tested on: BSR-T7; experiment: Inhibition of host cell cap-independent translation in Cricetinae BSR-T7 cells assessed as suppression of pT7/CITE-LUC activity at 0.1 to 10 uM after 20 hrs; assay type: functional, cell-based; conditions: not given

SMILES | inhibition
O=C(NCCc1ccncc1)C1CCN(C(=O)c2ccccc2NCc2ccc(Cl)cc2)CC1 | inactive
O=C(NCCc1ccncc1)C1CCN(C(=O)c2ccccc2Nc2ccc(Cl)cc2)CC1 | inactive

tested on: Western equine encephalitis virus; experiment: microbe, parasite or virus in culture; conditions: BE(2)-C

SMILES | IC50 [µM]
O=C(NCCc1ccncc1)C1CCN(C(=O)c2ccccc2NCCc2ccc(Cl)cc2)CC1 | 3.49
CN(c1ccc(Cl)cc1)c1ccccc1C(=O)N1CCC(C(=O)NCCc2ccncc2)CC1 | 15.4
O=C(NCCc1ccncc1)C1CCN(C(=O)c2ccccc2Nc2ccccc2)CC1 | 28.8
O=C(c1ccc(Cl)cc1)c1ccccc1C(=O)N1CCC(C(=O)NCCc2ccncc2)CC1 | > 50
O=C(NCCc1ccncc1)C1CCN(C(=O)c2ccccc2NCc2ccc(Cl)cc2)CC1 | 0.56
O=C(NCCc1ccncc1)C1CCN(C(=O)c2ccccc2Oc2ccc(Cl)cc2)CC1 | 6.1
O=C(NCCc1ccncc1)C1CCN(C(=O)c2ccccc2NCc2ccccc2)CC1 | 19
O=C(NCCc1ccncc1)C1CCN(C(=O)c2cc3ccccc3n2Cc2ccc(Cl)cc2)CC1 | 0.53
O=C(NCCc1ccncc1)C1CCN(C(=O)c2cccn2Cc2ccc(Cl)cc2)CC1 | 0.68
O=C(NCCc1ccncc1)C1CCN(C(=O)c2ccccc2Cc2ccc(Cl)cc2)CC1 | 1.46
O=C(NCCc1ccncc1)C1CCN(C(=O)c2ccccc2Nc2ccc(Cl)cc2)CC1 | 1.6

tested on: not listed separately; experiment: Kinetic solubility of the compound in WEEV replication assay medium in presence of 10% fetal bovine serum; assay type: physicochemical; conditions: WEEV replication assay medium with 10% fetal bovine serum; read-out: Kinetic_solubility

SMILES | solubility kinetic [µg/mL]
O=C(NCCc1ccncc1)C1CCN(C(=O)c2ccccc2Oc2ccc(Cl)cc2)CC1 | 62
O=C(NCCc1ccncc1)C1CCN(C(=O)c2cc3ccccc3n2Cc2ccc(Cl)cc2)CC1 | 31
O=C(NCCc1ccncc1)C1CCN(C(=O)c2cccn2Cc2ccc(Cl)cc2)CC1 | 125
O=C(NCCc1ccncc1)C1CCN(C(=O)c2ccccc2Cc2ccc(Cl)cc2)CC1 | 62

same assay, conditions: serum

SMILES | Kinetic_solubility [µg/mL]
O=C(NCCc1ccncc1)C1CCN(C(=O)c2ccccc2NCCc2ccc(Cl)cc2)CC1 | > 250
CN(c1ccc(Cl)cc1)c1ccccc1C(=O)N1CCC(C(=O)NCCc2ccncc2)CC1 | > 250
O=C(NCCc1ccncc1)C1CCN(C(=O)c2ccccc2Nc2ccccc2)CC1 | > 250
O=C(c1ccc(Cl)cc1)c1ccccc1C(=O)N1CCC(C(=O)NCCc2ccncc2)CC1 | > 250
O=C(NCCc1ccncc1)C1CCN(C(=O)c2ccccc2NCc2ccc(Cl)cc2)CC1 | > 250
O=C(NCCc1ccncc1)C1CCN(C(=O)c2ccccc2NCc2ccccc2)CC1 | > 250
O=C(NCCc1ccncc1)C1CCN(C(=O)c2ccccc2Nc2ccc(Cl)cc2)CC1 | > 250

tested on: Venezuelan equine encephalitis virus; experiment: Antiviral activity against Venezuelan equine encephalitis virus TC-83 vaccine infected in HEK293 cells assessed as reduction of viral titer at 25 uM by plaque reduction assay relative to untreated control; assay type: functional; conditions: not given

SMILES | fold change (FC)
O=C(NCCc1ccncc1)C1CCN(C(=O)c2ccccc2NCc2ccc(Cl)cc2)CC1 | 10
O=C(NCCc1ccncc1)C1CCN(C(=O)c2ccccc2Nc2ccc(Cl)cc2)CC1 | 10
